How the values were obtained:
Adenosine receptor A2a [1] = target: Adenosine receptor A2a (Rattus norvegicus, UniProt P30543); test: Antagonist activity at rat adenosine A2A receptor
Adenosine receptor A1 [2] = target: T1, Adenosine receptor A1 (Rattus norvegicus, UniProt P25099); test: Antagonist activity at rat adenosine A1 receptor
T1 sequence (P25099 whole entry): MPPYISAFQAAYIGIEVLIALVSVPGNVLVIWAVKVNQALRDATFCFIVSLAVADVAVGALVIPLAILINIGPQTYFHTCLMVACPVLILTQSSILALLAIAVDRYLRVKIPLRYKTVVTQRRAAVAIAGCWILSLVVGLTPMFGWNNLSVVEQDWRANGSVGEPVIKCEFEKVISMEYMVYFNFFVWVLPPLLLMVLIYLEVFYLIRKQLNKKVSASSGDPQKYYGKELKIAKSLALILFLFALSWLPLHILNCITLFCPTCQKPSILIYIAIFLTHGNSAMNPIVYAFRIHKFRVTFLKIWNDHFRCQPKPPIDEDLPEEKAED

in vivo [3] = conditions: rat, po, 3 mg/kg
[4] = Half life in rat at 3 mg/kg,po; conditions: in vivo
[5] = Inhibition of Monoamine oxidase in MPTP-induced C57BL/6 mouse assessed as inhibition constant
[6] = Inhibition of c-Jun phosphorylation in streptozotocin stimulated rat INS1 cells using TMB as substrate incubated for 16 hrs by microplate reader assay; conditions: INS1, 16 h
[7] = Agonist activity at D2 receptor in mouse MN9D cells assessed as increase in GTPgammaS binding
[8] = Agonist activity at D3 receptor in mouse MN9D cells assessed as increase in GTPgammaS binding
[9] = Agonist activity at rat mGlu4 receptor assessed as increase in calcium flux
in vivo [10] = conditions: rat, po, 15 mg/kg
Description: Oral bioavailability in 6-OHDA-unilateral lesioned rat model of Parkinson's disease at 15 mg/kg

animal or person = conditions: Mus musculus, po, 6 h, read-out: INH
Adenosine receptor A2a [11] = target: Adenosine receptor A2a (Homo sapiens, UniProt P29274); test: Antagonist activity at human adenosine A2A receptor
Sequence of Adenosine receptor A2a (Homo sapiens, UniProt P29274) (P29274 whole entry): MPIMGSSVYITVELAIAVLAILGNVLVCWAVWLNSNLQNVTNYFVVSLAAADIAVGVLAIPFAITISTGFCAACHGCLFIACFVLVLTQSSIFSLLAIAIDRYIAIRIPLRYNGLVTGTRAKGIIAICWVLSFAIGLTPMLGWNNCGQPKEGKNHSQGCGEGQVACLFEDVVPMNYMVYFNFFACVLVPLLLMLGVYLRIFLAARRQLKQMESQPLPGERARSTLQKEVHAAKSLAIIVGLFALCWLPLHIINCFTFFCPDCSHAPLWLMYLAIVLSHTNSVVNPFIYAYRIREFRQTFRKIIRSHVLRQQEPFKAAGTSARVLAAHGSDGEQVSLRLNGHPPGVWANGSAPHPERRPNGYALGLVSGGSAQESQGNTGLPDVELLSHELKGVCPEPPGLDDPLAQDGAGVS

Adenosine receptor A1 [12] = target: T2, Adenosine receptor A1 (Homo sapiens, UniProt P30542)
T2 sequence (P30542 whole entry): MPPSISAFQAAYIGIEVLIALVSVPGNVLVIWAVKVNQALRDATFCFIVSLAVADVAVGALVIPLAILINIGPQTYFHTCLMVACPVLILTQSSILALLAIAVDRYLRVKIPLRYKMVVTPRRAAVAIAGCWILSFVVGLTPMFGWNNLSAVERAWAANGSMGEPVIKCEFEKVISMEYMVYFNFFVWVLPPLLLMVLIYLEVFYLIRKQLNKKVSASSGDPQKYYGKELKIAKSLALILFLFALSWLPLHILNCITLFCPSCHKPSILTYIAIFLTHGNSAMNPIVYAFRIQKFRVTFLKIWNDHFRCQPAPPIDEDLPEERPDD
Description: Antagonist activity at human adenosine A1 receptor

[13] = Drug concentration in 6-OHDA-unilateral lesioned mouse model of Parkinson's disease assessed as brain concentration at 50 mg/kg,ip measured after 4 hrs
[14] = Plasma concentration in 6-OHDA-unilateral lesioned mouse model of Parkinson's disease at 50 mg/kg,ip measured after 4 hrs
D(3) dopamine receptor [15] = target: T3, D(3) dopamine receptor (Homo sapiens, UniProt P35462); test: Agonist activity at dopamine D3 receptor (unknown origin)
T3 sequence (P35462 whole entry): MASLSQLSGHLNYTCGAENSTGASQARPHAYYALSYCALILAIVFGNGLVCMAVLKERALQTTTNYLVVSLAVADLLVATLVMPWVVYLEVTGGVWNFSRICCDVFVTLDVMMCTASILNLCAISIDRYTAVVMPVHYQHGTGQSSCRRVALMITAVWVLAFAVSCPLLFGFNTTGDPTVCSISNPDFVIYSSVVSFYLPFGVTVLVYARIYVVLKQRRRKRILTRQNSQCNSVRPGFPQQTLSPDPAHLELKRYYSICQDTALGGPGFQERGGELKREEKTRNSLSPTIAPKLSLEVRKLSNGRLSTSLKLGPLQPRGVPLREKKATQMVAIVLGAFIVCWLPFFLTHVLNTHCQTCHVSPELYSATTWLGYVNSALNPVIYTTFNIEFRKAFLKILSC

D(2) dopamine receptor [16] = target: T4, D(2) dopamine receptor (Homo sapiens, UniProt P14416)
T4 sequence (P14416 whole entry): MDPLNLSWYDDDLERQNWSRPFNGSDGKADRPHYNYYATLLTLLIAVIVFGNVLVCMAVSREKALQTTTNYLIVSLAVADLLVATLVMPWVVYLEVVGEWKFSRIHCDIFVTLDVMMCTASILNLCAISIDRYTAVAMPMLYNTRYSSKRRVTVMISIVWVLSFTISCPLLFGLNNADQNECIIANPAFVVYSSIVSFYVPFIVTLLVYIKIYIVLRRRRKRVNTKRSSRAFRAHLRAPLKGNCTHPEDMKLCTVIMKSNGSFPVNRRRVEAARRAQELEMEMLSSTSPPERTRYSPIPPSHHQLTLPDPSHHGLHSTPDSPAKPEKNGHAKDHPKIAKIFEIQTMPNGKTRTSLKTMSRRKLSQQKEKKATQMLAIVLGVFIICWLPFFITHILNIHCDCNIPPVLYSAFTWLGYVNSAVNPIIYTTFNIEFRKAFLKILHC
Description: Agonist activity at dopamine D2 receptor (unknown origin)

[17] = target: T5, Amine oxidase [flavin-containing] B (Homo sapiens, UniProt P27338); test: Inhibition of human MAO-B
T5 sequence (P27338 whole entry): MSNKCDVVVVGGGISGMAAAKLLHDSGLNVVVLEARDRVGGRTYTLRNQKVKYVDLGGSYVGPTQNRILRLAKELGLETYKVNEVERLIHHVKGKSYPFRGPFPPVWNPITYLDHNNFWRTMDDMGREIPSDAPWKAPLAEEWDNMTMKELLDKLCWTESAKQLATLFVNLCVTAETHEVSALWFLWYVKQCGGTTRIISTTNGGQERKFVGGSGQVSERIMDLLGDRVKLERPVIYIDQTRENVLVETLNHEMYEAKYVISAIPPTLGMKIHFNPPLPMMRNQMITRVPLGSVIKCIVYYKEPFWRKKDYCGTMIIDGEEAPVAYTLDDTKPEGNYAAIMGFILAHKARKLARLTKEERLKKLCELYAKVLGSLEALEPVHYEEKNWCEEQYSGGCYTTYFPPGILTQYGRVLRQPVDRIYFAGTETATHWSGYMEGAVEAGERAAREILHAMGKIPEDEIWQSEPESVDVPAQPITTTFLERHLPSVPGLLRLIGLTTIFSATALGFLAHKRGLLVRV

[18] = Displacement of [3H]-spiperone from D2 receptor in rat striatum incubated for 90 mins by competitive radioligand binding based scintillation counter analysis
[19] = Displacement of [3H]-SCH23390 from D1 receptor in rat striatum incubated for 30 mins by competitive radioligand binding based scintillation counter analysis
[20] = Metabolic stability at human liver microsomes assessed as half life
[21] = Metabolic stability at human liver microsomes assessed as intrinsic clearance
D(2) dopamine receptor [22] = target: T4, D(2) dopamine receptor; remark: listed apart in the source
D(3) dopamine receptor [23] = target: T3, D(3) dopamine receptor; test: Agonist activity at dopamine D3 receptor (unknown origin) assessed as increase in GTPgammaS binding

Sequence of Adenosine receptor A2a (Rattus norvegicus, UniProt P30543) (P30543 whole entry): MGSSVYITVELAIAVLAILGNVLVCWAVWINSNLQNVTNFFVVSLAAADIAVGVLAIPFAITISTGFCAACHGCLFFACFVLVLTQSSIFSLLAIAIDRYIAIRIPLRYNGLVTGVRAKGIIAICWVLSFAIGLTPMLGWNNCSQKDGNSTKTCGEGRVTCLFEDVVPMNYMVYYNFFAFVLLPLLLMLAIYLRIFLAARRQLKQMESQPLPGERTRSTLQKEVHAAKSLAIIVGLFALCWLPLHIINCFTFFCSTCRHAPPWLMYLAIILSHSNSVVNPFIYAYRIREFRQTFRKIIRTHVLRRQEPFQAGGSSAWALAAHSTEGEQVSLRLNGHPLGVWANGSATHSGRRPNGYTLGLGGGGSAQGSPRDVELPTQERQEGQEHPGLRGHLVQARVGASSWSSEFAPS

## Nc1nc(NC[C@H]2CCCN2Cc2ccnc(Cl)c2)nc2nc(-c3ccco3)nn12
Adenosine receptor A2a [1]
  Ki: 10 nM
Adenosine receptor A1 [2]
  Ki: > 250 nM

## Cn1nc(C(F)(F)F)c(CN2CCN(c3nc(N)n4nc(-c5ccco5)nc4n3)CC2)c1Cl
In vivo [3]
  bioavailability: 7%
[4]
  half-life: 30 min

## CC1=C(C)C(=O)c2cc(C)ccc2C1=O
[5]
  Ki: 6000 nM

## Cc1ccc(-c2ncn(-c3ccc(Nc4nccc(-c5cccc(N6CCOCC6)c5)n4)cc3)n2)cn1
[6]
  IC50: 216 nM

## CCCN(CCN1CCN(C(=O)c2cc3ccccc3[nH]2)CC1)[C@H]1CCc2nc(N)sc2C1
[7]
  EC50: 2.96 nM
[8]
  EC50: 1.26 nM

## Cc1ccc(-c2cc(-c3cccc(C(=O)N4CCCCC4)c3)nc(N)n2)o1
Adenosine receptor A2a [1]
  Ki: 9.54 nM
Adenosine receptor A1 [2]
  Ki: 6.34 nM

## Fc1ccc(Nc2n[nH]c3cccnc23)cc1Cl
[9]
  EC50: 46 nM
In vivo [10]
  bioavailability: 95%

## O=C(CCN1CCN(c2cccc(C(F)(F)F)c2)CC1)c1cc(O)c(O)c([N+](=O)[O-])c1
Animal or person
  inhibition in vivo at 30 mg/kg: 74%

## Nc1nc(N2CCN3CCC[C@@H]3C2)cc2nc(-c3ccco3)nn12
Adenosine receptor A2a [11]
  Ki: 63 nM
Adenosine receptor A1 [12]
  Ki: 1100 nM

## Cc1cc(Oc2nccc3occc23)ccc1-c1c(C)c(=O)[nH]c(=O)n1C
[13]
  concentration at 4 h: 100 µM
[14]
  concentration at 4 h: 100 µM

## CCCN(CCN1CCN(c2ccccc2)CC1)[C@H]1CCc2ccc(O)cc2C1
D(3) dopamine receptor [15]
  EC50: 2.91 nM
D(2) dopamine receptor [16]
  EC50: 9.98 nM

## COC[C@H]1CCCN1c1cc(Nc2ccccn2)nc(-n2cccn2)n1
Adenosine receptor A2a [11]
  Ki: 0.22 nM

## CCCN(CCN1CCN(c2ccc3[nH]ccc3c2Cl)CC1)[C@H]1CCc2nc(N)sc2C1
[7]
  EC50: 114 nM
[8]
  EC50: 0.26 nM

## C/C(=N\NC(=O)c1cc(-c2ccccc2)on1)c1ccc(C)cc1
[17]
  IC50: 5.1 nM

## CCCN1CCC[C@H]2c3[nH]c4ccccc4c3CC[C@@H]21
[18]
  Ki: 1.31 nM
[19]
  Ki: 19.8 nM

## Cc1cccc(Nc2nc(NCCCO)nc3c2cnn3-c2ccccc2)c1
Adenosine receptor A1 [12]
  Ki: > 540 nM

## CO[C@@H]1CCN(c2cccc(-c3nc(-n4nc(C)cc4C)nc(N)c3C#N)n2)C1
[20]
  half-life: 53 min
[21]
  CLint scaled: 34 mL/min/kg

## CNCc1cc(=O)oc2c(O)c(O)ccc12
[17]
  IC50: 12400 nM

## CCCN(CCN1CCN(c2ccc(-c3ccccn3)nc2)CC1)[C@H]1CCc2nc(N)sc2C1
D(2) dopamine receptor [16]
  EC50: 51.6 nM

## CCCN(CCN1CCN(c2ccc3c(c2)[nH]c2ccccc23)CC1)[C@H]1CCc2c(O)cccc2C1
D(2) dopamine receptor [22]
  EC50: 0.23 nM
D(3) dopamine receptor [23]
  EC50: 0.87 nM

## C#CCN1CCC[C@H]2c3[nH]c4ccccc4c3CC[C@@H]21
[18]
  Ki: 1.09 nM
[19]
  Ki: 2.15 nM

## COc1ccc(/C(C)=N/NC(=O)c2cc(-c3ccccc3)on2)cc1OC
[17]
  IC50: 5.9 nM
